What all share (assay): DTP human tumour cell line panel, 48 h
Assay [1] relates to 786-0 renal.
Assay [2] deals with ACHN renal.
The subject of assay [3] is BT-549 breast.
In assay [4] the test system is RPMI-8226 leukemia.
For assay [5], the system named is OVCAR-3 ovarian.
The test system of assay [6] is A549 NSCLC.
Assay [7] concerns HCT-15 colon.
In assay [8] the test system is CCRF-CEM leukemia.
The subject of assay [9] is SNB-75 CNS.
The subject of assay [10] is COLO 205 colon.
Assay [11] has as its system MDA-N.

Data on 14 compounds can be found in PubChem BioAssay (NCI).

The TGI is the concentration at which net growth stops. Lower therefore signals more potent growth arrest.

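Method: 48-hour compound exposure of cells in 96-well plates, five concentrations, linear interpolation of endpoints. TGI marks complete inhibition of growth.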

On to `Nc1nc2ncc(CNc3ccc(C(=O)NC(CCC(=O)O)C(=O)O)cc3)nc2c(=O)[nH]1` (stereo not drawn), for which the TGI in assay [1], in assay [2], in [3], in assay [4], in [5] and in assay [6] was greater than 100 µM in each case. For the same compound, the TGI in assay [7], in assay [8] and in [9] was greater than 100 µM each time.
For `N#Cc1c(-c2ccc(Cl)cc2)[nH]c(=O)n(C2OC(CO)C(O)C(O)C2O)c1=O` (stereo not drawn), the TGI in [1], in assay [2], in assay [3], in [4], in [5] and in assay [6] was greater than 100 µM each time. The TGI in assay [7], in assay [10], in [8] and in assay [9] was greater than 100 µM each time.
Consider `O=C(CN1CCOCC1)c1ccc2c(c1)oc(=O)n2CCN1CCOCC1`, for which the TGI in [1], in assay [11], in assay [4], in assay [5], in [10] and in assay [8] was greater than 100 µM throughout. This compound registered a TGI in assay [9] greater than 100 µM.
On to `COc1ccc(N2C(=O)C3c4[nH]c5ccc(Br)cc5c4C4CCC(C(C)(C)C)CC4C3C2=O)cc1` (stereo not drawn), for which the TGI in assay [1], in assay [11], in assay [2], in [3], in [4] and in assay [5] was greater than 100 µM throughout. The concentration for total growth inhibition (TGI) in assay [6], in assay [7], in assay [10] and in [8] was greater than 100 µM in each case.
Consider `NCCCC[C@H](N)C(=O)Nc1ccc(-c2nc3ccccc3s2)cc1`, for which the TGI in [1] is 32.9 µM; in [11], 29 µM; in [2], 55 µM; in assay [3] it was 84.9 µM; in assay [5] it was 37.2 µM; in [6], greater than 100 µM. In addition, the TGI in assay [7] came to 33.7 µM; in [10], 33.6 µM; in assay [8], 23.6 µM; in [9], 35.2 µM.
Consider `CCOC(=O)c1cc2/c(=C\c3ccc(N(C)C)cc3)c3ccccc3n2[n+]1C`, for which the TGI in assay [1] is 15 µM; in [11], 15.3 µM; in assay [2], 20.4 µM; in assay [3] it was 7.11 µM; in [5], 0.581 µM; in assay [6], greater than 40 µM. The values for the concentration for total growth inhibition (TGI) in [7], in assay [10] and in assay [8] were 31.9 µM, 1.42 µM and greater than 24.6 µM, respectively.
In the case of `CC1SCc2nc3ccccc3n21` (stereo not drawn), the TGI in [1], in assay [11], in assay [2], in [4], in assay [5] and in assay [6] was greater than 100 µM in each case. Besides, the TGI in [7] is greater than 100 µM; in [10], greater than 100 µM; in [8], greater than 100 µM; in [9], 83.3 µM.
Consider `COC1CC(COCc2ccccc2)CC(OC)O1` (stereo not drawn), for which the TGI in assay [1], in [11], in assay [2], in [4], in [5] and in [6] was greater than 100 µM each time. For the same compound, the TGI in [7] is greater than 100 µM; in assay [10], greater than 100 µM; in assay [8], 0.44 µM; in assay [9], greater than 100 µM.
As for `CN1C(=O)C2(C=CC(O)CC2)c2ccccc21` (stereo not drawn), the TGI in assay [1], in assay [11], in assay [2], in [4], in [5] and in assay [6] was greater than 100 µM throughout. Further, the TGI in [7], in assay [10], in assay [8] and in assay [9] was greater than 100 µM throughout.
With `COC(=O)C1(C#N)C(C)(C)N=C(c2ccccc2)C12CCCCC2` (stereo not drawn), the TGI in [1], in [11], in assay [3], in assay [4], in assay [5] and in assay [6] was greater than 100 µM each time. Also, the TGI in assay [7], in assay [10] and in assay [8] was greater than 100 µM throughout.
For the compound `O=C1C(=O)N(c2cccc(C(F)(F)F)c2)C(=S)N1c1ccccc1`, the TGI in assay [1] was greater than 100 µM; in assay [11], 71.9 µM; in assay [2], 30.6 µM; in [4], greater than 100 µM; in [6], greater than 100 µM; in assay [7], 40.7 µM. The results for the TGI in assay [10], in [8] and in [9] were 30.5 µM, greater than 100 µM and greater than 100 µM, respectively.
Turning to `COc1cc(C2c3cc4c(cc3OC(NNS(=O)(=O)c3ccc(C)cc3)C2C)OCO4)cc(OC)c1O` (stereo not drawn), the TGI was 42.9 µM in assay [1]; 51.4 µM in [11]; 33.6 µM in assay [2]; 41.9 µM in assay [4]; 50 µM in assay [5]; greater than 100 µM in [6]. For the same compound, the TGI in assay [7] is 22.6 µM; in assay [10] it was 43.5 µM; in [8], greater than 100 µM; in assay [9] it was 22.7 µM.
On to `CC(=O)O[C@H]1CC[C@@]2(C)C(=CC[C@@H]3[C@@H]2CC[C@]2(C)c4c(C)nn(-c5ccccc5)c4C[C@@H]32)C1`, for which the TGI in [1] was 35.9 µM; in assay [11], greater than 100 µM; in [2], 61.1 µM; in assay [3], 23.8 µM; in [5] it was greater than 100 µM; in [6], greater than 100 µM. The TGI in assay [7] is greater than 100 µM; in assay [10], 36.2 µM; in [8], 56.9 µM; in assay [9] it was 49.9 µM.
Turning to `NC(=O)Cc1nc2c(N)ncnc2n1C1OC(CO)C(O)C1O` (stereo not drawn), the TGI in assay [1], in assay [11], in [2], in assay [3], in assay [4] and in assay [5] was greater than 100 µM in each case. Also, the TGI in assay [6], in assay [7], in [10] and in [8] was greater than 100 µM throughout.
